Where two headings read alike, the source gives them in different places.
Columns and labels:
[1] = system: Key Broadleaf Weed and Crop Species; assay: Post-Emergent Test II: postemergent herbicidal activity, visual rating after 14 d (Table 7); format: in vivo; settings: post-emergence, 336 h; for pest or weed control at 35 g/ha: 35 g ai/ha; for pest or weed control at 70 g/ha: 70 g ai/ha; for pest or weed control at 140 g/ha: 140 g ai/ha
Procedure, shortened: (§1)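 Greenhouse-grown plants at the first or second true leaf stage (7-21 d, ~15 h photoperiod, 23-29° C day) were sprayed with compound in acetone/DMSO-based aqueous spray containing crop oil concentrate and Triton X-155 at 187 L/ha. Injury versus untreated plants was rated visually after 14 d on a 0-100 scale.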

[2] = system: Key Grass and Sedge Weeds as well as Grass Crops; assay: Post-Emergent Test II: postemergent herbicidal activity, visual rating after 14 d (Table 8); format: in vivo; settings: post-emergence, 336 h; for pest or weed control at 35 g/ha: 35 g ai/ha; for pest or weed control at 70 g/ha: 70 g ai/ha; for pest or weed control at 140 g/ha: 140 g ai/ha
Procedure, shortened: as §1

[3] = ABUTH: velvetleaf (Abutilon theophrasti), read-out: Visual Growth Reduction (%) 14 Days After Application ABUTH
[4] = AMARE: redroot pigweed (Amaranthus retroflexus), read-out: Visual Growth Reduction (%) 14 Days After Application AMARE
[5] = BRSNN: oilseed rape, canola (Brassica napus), read-out: Visual Growth Reduction (%) 14 Days After Application BRSNN
[6] = CHEAL: lambsquarters (Chenopodium album), read-out: Visual Growth Reduction (%) 14 Days After Application CHEAL
[7] = EPHHL: wild poinsettia (Euphorbia heterophylla), read-out: Visual Growth Reduction (%) 14 Days After Application EPHHL
[8] = HELAN: sunflower (Helianthus annuus), read-out: Visual Growth Reduction (%) 14 Days After Application HELAN
[9] = barnyardgrass (Echinochloa crus-galli), read-out: Visual Growth Reduction (%) 14 Days After Application, ECHCG
[10] = giant foxtail (Setaria faberi), read-out: Visual Growth Reduction (%) 14 Days After Application, SETFA
[11] = maize, corn (Zea mays), read-out: Visual Growth Reduction (%) 14 Days After Application, ZEAMX
[12] = rice (Oryza sativa), read-out: Visual Growth Reduction (%) 14 Days After Application, ORYSA
[13] = wheat, spring (Triticum aestivum), read-out: Visual Growth Reduction (%) 14 Days After Application, TRZAS
[14] = yellow nutsedge (Cyperus esculentus), read-out: Visual Growth Reduction (%) 14 Days After Application, CYPES

Structure (SMILES)	pest or weed control at 35 g/ha [1, 3]	pest or weed control at 70 g/ha [1, 3]	pest or weed control at 140 g/ha [1, 3]	pest or weed control at 35 g/ha [1, 4]	pest or weed control at 70 g/ha [1, 4]	pest or weed control at 140 g/ha [1, 4]	pest or weed control at 35 g/ha [1, 5]	pest or weed control at 70 g/ha [1, 5]	pest or weed control at 140 g/ha [1, 5]	pest or weed control at 35 g/ha [1, 6]	pest or weed control at 70 g/ha [1, 6]	pest or weed control at 140 g/ha [1, 6]	pest or weed control at 35 g/ha [1, 7]	pest or weed control at 70 g/ha [1, 7]	pest or weed control at 140 g/ha [1, 7]	pest or weed control at 35 g/ha [1, 8]	pest or weed control at 70 g/ha [1, 8]	pest or weed control at 140 g/ha [1, 8]	pest or weed control at 35 g/ha [2, 9]	pest or weed control at 70 g/ha [2, 9]	further results
COC(=O)c1nc(-c2ccc3c(c2)COC3)c(F)c(N)c1Cl [Compound 103, Methyl 4-amino-3-chloro-6-(1,3-dihydroisobenzofuran-5-yl)-5-fluoropicolinate]	0 to 29%	0 to 29%	0 to 29%	0 to 29%	0 to 29%	0 to 29%	0 to 29%	0 to 29%	0 to 29%	45 to 59%	85 to 94%	95 to 100%	0 to 29%	0 to 29%	0 to 29%	75 to 84%	75 to 84%	75 to 84%	0 to 29%	0 to 29%	pest or weed control at 140 g/ha [2, 9]: 0 to 29%; pest or weed control at 35 g/ha [2, 10]: 0 to 29%; pest or weed control at 70 g/ha [2, 10]: 0 to 29%; pest or weed control at 140 g/ha [2, 10]: 0 to 29%; pest or weed control at 35 g/ha [2, 11]: 0 to 29%; pest or weed control at 70 g/ha [2, 11]: 0 to 29%; pest or weed control at 140 g/ha [2, 11]: 0 to 29%; pest or weed control at 35 g/ha [2, 12]: 0 to 29%; pest or weed control at 70 g/ha [2, 12]: 0 to 29%; pest or weed control at 140 g/ha [2, 12]: 0 to 29%; pest or weed control at 35 g/ha [2, 13]: 0 to 29%; pest or weed control at 70 g/ha [2, 13]: 0 to 29%; pest or weed control at 140 g/ha [2, 13]: 0 to 29%; pest or weed control at 35 g/ha [2, 14]: 0 to 29%; pest or weed control at 70 g/ha [2, 14]: 0 to 29%; pest or weed control at 140 g/ha [2, 14]: 0 to 29%
Nc1c(F)c(-c2ccc3c(c2)COC3)nc(C(=O)O)c1Cl [Compound 104]	0 to 29%	0 to 29%	0 to 29%	0 to 29%	0 to 29%	0 to 29%	0 to 29%	0 to 29%	0 to 29%	45 to 59%	85 to 94%	85 to 94%	0 to 29%	0 to 29%	0 to 29%	45 to 59%	75 to 84%	75 to 84%	0 to 29%	0 to 29%	pest or weed control at 140 g/ha [2, 9]: 0 to 29%; pest or weed control at 35 g/ha [2, 10]: 0 to 29%; pest or weed control at 70 g/ha [2, 10]: 0 to 29%; pest or weed control at 140 g/ha [2, 10]: 0 to 29%; pest or weed control at 35 g/ha [2, 11]: 0 to 29%; pest or weed control at 70 g/ha [2, 11]: 0 to 29%; pest or weed control at 140 g/ha [2, 11]: 0 to 29%; pest or weed control at 35 g/ha [2, 12]: 0 to 29%; pest or weed control at 70 g/ha [2, 12]: 0 to 29%; pest or weed control at 140 g/ha [2, 12]: 0 to 29%; pest or weed control at 35 g/ha [2, 13]: 0 to 29%; pest or weed control at 70 g/ha [2, 13]: 0 to 29%; pest or weed control at 140 g/ha [2, 13]: 0 to 29%; pest or weed control at 35 g/ha [2, 14]: 0 to 29%; pest or weed control at 70 g/ha [2, 14]: 0 to 29%; pest or weed control at 140 g/ha [2, 14]: 0 to 29%
COC(=O)c1nc(-c2ccc3c(c2)SCO3)c(F)c(N)c1Cl [Compound 105]	0 to 29%	0 to 29%	0 to 29%	0 to 29%	0 to 29%	45 to 59%	0 to 29%	30 to 44%	60 to 74%	30 to 44%	30 to 44%	60 to 74%	60 to 74%	75 to 84%	85 to 94%	85 to 94%	85 to 94%	95 to 100%	45 to 59%	60 to 74%	pest or weed control at 140 g/ha [2, 9]: 75 to 84%; pest or weed control at 35 g/ha [2, 10]: 0 to 29%; pest or weed control at 70 g/ha [2, 10]: 0 to 29%; pest or weed control at 140 g/ha [2, 10]: 30 to 44%; pest or weed control at 35 g/ha [2, 11]: 0 to 29%; pest or weed control at 70 g/ha [2, 11]: 0 to 29%; pest or weed control at 140 g/ha [2, 11]: 0 to 29%; pest or weed control at 35 g/ha [2, 12]: 0 to 29%; pest or weed control at 70 g/ha [2, 12]: 0 to 29%; pest or weed control at 140 g/ha [2, 12]: 0 to 29%; pest or weed control at 35 g/ha [2, 13]: 0 to 29%; pest or weed control at 70 g/ha [2, 13]: 0 to 29%; pest or weed control at 140 g/ha [2, 13]: 0 to 29%; pest or weed control at 35 g/ha [2, 14]: 0 to 29%; pest or weed control at 70 g/ha [2, 14]: 0 to 29%; pest or weed control at 140 g/ha [2, 14]: 0 to 29%

— patent publication US9149038B2, “4-amino-6-(heterocyclic)picolinates and 6-amino-2-(heterocyclic)pyrimidine-4-carboxylates and their use as herbicides” (Dow AgroSciences LLC, priority 2013, dated 2015)
